Columns and labels:
Format in all cases: cell-based, human
[1] = system: ARPE-19 cells; test: LIVE/DEAD assay; settings: ARPE-19, ±2% FBS, 10 μM fenoldopam, 4 days
Procedure: (§1) Cell culture: The human RPE cell line ARPE-19 was purchased from ATCC and cultured in Dulbecco's Modified Eagle Medium/Nutrient Mixture F-12 (DMEM/F-12) supplemented with 2.50 mM L-Glutamine, 15 mM HEPES Buffer, 10% fetal bovine serum (FBS), and 1% Antibiotic-Antimycotic (Gibco), unless otherwise noted. Cells were maintained in a humidified 37° C., 5% CO2 incubator. All experiments were performed with cells at passage 3-6. Proliferation and Live/Dead Assays: ARPE-19 cells were plated into 96-well plates (1,000 cells/well) and allowed to attach. Media was removed and replaced with the media specified in the “Cell Culture” section above, with reduced FBS. Cells were treated for four days ±2% FBS, and 10 μM fenoldopam, replacing media conditions every 24 hours for wells treated with fenoldopam. After four days, CellTiter-Fluor™ (Promega) was added to each well according to the manufacturer and measured on a Flexstation 3 (Molecular Devices) plate reader for the proliferation assay. For the LIVE/DEAD™ assay, each component of the kit (Thermo Fisher Scientific) was added, then cells were incubated for 30 minutes. Fluorescent images were then taken using a Cytation 5 imaging reader (BioTek) and quantified for cytotoxicity/viability.

[2] = system: ARPE-19 cells; test: Wound healing (wound migration) assay; settings: ARPE-19, ±TGFβ 10 ng/mL, 10 μM fenoldopam, 0-72 hours, media changed every 24 hours
Procedure: Cell culture: The human RPE cell line ARPE-19 was purchased from ATCC and cultured in Dulbecco's Modified Eagle Medium/Nutrient Mixture F-12 (DMEM/F-12) supplemented with 2.50 mM L-Glutamine, 15 mM HEPES Buffer, 10% fetal bovine serum (FBS), and 1% Antibiotic-Antimycotic (Gibco), unless otherwise noted. Cells were maintained in a humidified 37° C., 5% CO2 incubator. All experiments were performed with cells at passage 3-6. Wound Healing Assay: ARPE-19 cells were plated confluent into a 12-well plate (300,000 cells/well) and allowed to attach. Cells were exposed to a single scratch made with a p200 pipette tip. Media was removed and replaced with the media specified in the “Cell Culture” section above, without FBS. Cells were treated ±TGFβ (10 ng/mL), 10 μM fenoldopam replacing media conditions every 24 hours for wells treated with fenoldopam. Cells were imaged after treatment for 0, 24, 48, and 72 hours. Cells were imaged with an inverted phase-contract microscope and wound area was measured using ImageJ software as previously described.

[3] = system: ARPE-19 cells; test: qPCR of profibrotic gene expression in ARPE-19 cells ±TGFβ
Procedure: Cell culture: The human RPE cell line ARPE-19 was purchased from ATCC and cultured in Dulbecco's Modified Eagle Medium/Nutrient Mixture F-12 (DMEM/F-12) supplemented with 2.50 mM L-Glutamine, 15 mM HEPES Buffer, 10% fetal bovine serum (FBS), and 1% Antibiotic-Antimycotic (Gibco), unless otherwise noted. Cells were maintained in a humidified 37° C., 5% CO2 incubator. All experiments were performed with cells at passage 3-6. Chemicals and Reagents: dimethyl sulfoxide (DMSO) was purchased from Fisher Scientific and used to solubilize fenoldopam and SCH 39166. 2-mercaptoethanol was purchased from Bio-Rad Laboratories and added to RLT buffer prior to RNA isolation, as per Qiagen instructions. Fenoldopam and SCH 39166 were purchased from Cayman Chemical Company. TGFβ was purchased from InvivoGen. Fenoldopam, like a majority of […], has a characteristically short half-life. To take this into account we changed media daily to assess the efficacy of fenoldopam to inhibit fibrotic activation in vitro. RNA Isolation/qPCR Analysis: ARPE-19 cells were plated into 12 well plates (100,000 cells/well) and allowed to attach. Media was removed and replaced with the media specified in the “Cell Culture” section above, minus FBS. Cells were treated for 24 hours ±TGFβ (10 ng/mL), 10 μM fenoldopam, and 3 μM SCH 39166. RNA was isolated using the RNeasy Plus Mini Kit (Qiagen) and the manufacturer's protocol. Isolated RNA was converted to cDNA using the SuperScript VILO cDNA Synthesis Kit (Invitrogen) and the PTC-200 Peltier Thermal Cycler (MJ Research). Quantitative PCR (qPCR) was performed using FastStart Essential DNA Green Master (Roche) and LightCycler 96 (Roche).

[4] = system: ARPE-19 cells; test: Proliferation assay (CellTiter-Fluor); settings: ARPE-19, ±2% FBS, 10 μM fenoldopam, 4 days
Procedure: as §1

[5] = system: ARPE-19 cells; test: Fibronectin deposition (immunofluorescence); settings: ARPE-19, ±TGFβ 10 ng/mL, 10 μM fenoldopam, 4 days
Procedure: Cell culture: The human RPE cell line ARPE-19 was purchased from ATCC and cultured in Dulbecco's Modified Eagle Medium/Nutrient Mixture F-12 (DMEM/F-12) supplemented with 2.50 mM L-Glutamine, 15 mM HEPES Buffer, 10% fetal bovine serum (FBS), and 1% Antibiotic-Antimycotic (Gibco), unless otherwise noted. Cells were maintained in a humidified 37° C., 5% CO2 incubator. All experiments were performed with cells at passage 3-6. Fibronectin Deposition: ARPE-19 cells were plated into 96-well plates (10,000 cells/well) and allowed to attach. Media was removed and replaced with the media specified in the “Cell Culture” section above, without FBS. Cells were treated for four days ±TGFβ (10 ng/mL), 10 μM fenoldopam, replacing media conditions every 24 hours for wells treated with fenoldopam. Cells were fixed with 10% neutral buffered formalin (Sigma-Aldrich) for 15 minutes. Cells were permeabilized with 0.25% Triton X-100 (Sigma-Aldrich) and blocked with 1% BSA for 1 hour. Cells were incubated with mouse monoclonal IgG3 primary antibodies against fibronectin (Santa Cruz Biotechnology), which were diluted 1:400 in 0.25% Triton X-100 (Sigma-Aldrich) with 1% BSA. Cells were incubated with primary antibodies either in 4° C. overnight or at room temperature for 2 hours. […] Immunofluorescence was measured using a Cytation 5 imaging reader (BioTek).

[6] = system: ARPE-19 cells; test: TGFβ-induced EMT in cultured RPE cells (morphology, qPCR of mesenchymal/profibrotic genes); settings: ARPE-19, 5 ng/ml TGF-β1, 24 h, 0% FBS; 1 μM CTC-6 or 10 μM MS-9
Procedure: Cell culture: ARPE-19 cells were purchased from ATCC (Manassas, VA, USA) were cultured in Eagle's minimal essential medium (EMEM) containing 10% fetal bovine serum (FBS) and antibiotic-antimycotic (Thermo Fisher Scientific) unless otherwise noted.
qPCR analysis: ARPE-19 cells were plated on tissue culture dishes (Thermo Fisher Scientific, 60×15 mm) in EMEM containing 10% FBS and allowed to attach and grow for 24 h. Cells were stimulated with 5 ng/ml TGF-β1 and 10 μM MS-9 or 1 μM CTC-6 in EMEM containing 0% FBS for 24 h prior to RNA isolation using the RNeasy Plus Mini Kit (Qiagen, Hilden, Germany) according to the manufacturer's instructions. Isolated RNA (500 ng) was then used to synthesize cDNA using SuperScript VILO (Invitrogen, Carlsbad, CA, USA). Quantitative PCR (qPCR) was performed using FastStart Essential DNA Green Master and analyzed with LightCycler 96 (Roche, Basel, Switzerland). Data are expressed as a fold change by ΔΔCt relative to the level of the GAPDH housekeeping gene, and normalized to control.
As expected, TGFβ stimulated morphological changes consistent with EMT (FIG. 2A) and enhanced expression of ECM genes: COL1A1 and COL3A1, connective tissue growth factor (CTGF) and alpha-smooth muscle actin (ACTA2) (FIG. 2B).

Oc1ccc(C2CNCCc3c2cc(O)c(O)c3Cl)cc1 (centres unmarked) [fenoldopam]
antifibrotic response in live/dead assay [1]: robust antifibrotic response | antifibrotic response in wound migration assay [2]: robust antifibrotic response | expression of COL1A1, ACTA2, and FN1 compared to TGFβ exclusively ([3]; ARPE-19, TGFβ 10 ng/mL, 10 μM fenoldopam, 24 hours): significant decrease | antifibrotic response in proliferation assay [4]: robust antifibrotic response | antifibrotic response in fibronectin deposition assay [5]: robust antifibrotic response

CN1CCc2cc(Cl)c(O)cc2[C@H]2c3ccccc3CC[C@@H]21 [SCH 39166]
effect of D5 antagonist alone in the presence of TGFβ on profibrotic gene expression ([3]; ARPE-19, TGFβ 10 ng/mL + 3 μM SCH 39166, 24 hours): no effect | effect of D5 antagonist on the antifibrotic effects of fenoldopam (profibrotic gene expression) ([3]; ARPE-19, TGFβ 10 ng/mL + 10 μM fenoldopam + 3 μM SCH 39166, 24 hours): surmount the antifibrotic effects of fenoldopam

NCC1OC(c2ccncc2)Cc2c1ccc(O)c2O (centres unmarked) [CTC-6]
markers of EMT (morphology; COL1A1, COL3A1, CTGF, ACTA2 expression) [6]: blocked markers of EMT
